Measured values reported in patent US8211883B2, “Topical delivery of phthalocyanines” (priority 2004, dated 2012).

Legend:
[1] = system: Chinese hamster V79-379 lung fibroblasts; assay: Clonogenic cell survival of V79 cells after photodynamic treatment; format: cell-based; conditions: for LD 90 (light dosage that kills 90% of cells): 18 hours, 675 nm red light; for CF10(AIPcCI)/CF10 (Pc): CF10 = product of intracellular concentration and fluence reducing survival to 10%; for F10(AIPcCI)/F10 (Pc): F10 = fluence reducing cell survival to 10%
In short: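 V79 cells exposed to 0.5 or 1.0 μM phthalocyanine, then irradiated about 18 h later with increasing fluences of broad-band red light (600 nm high-pass filter). Survival scored as colonies of ≥50 cells. F10 taken from survival curves; CF10 from survival against intracellular concentration × fluence; 1 μM AlPcCl run as reference.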

[2] = system: Mouse lymphoma L5178y-R cells; assay: Clonogenic cell survival of PDT-treated LY-R cells; format: cell-based; conditions: 0.5 μM; for activity relative to PcXII: from LD50/LD90 fluences
Experimental: Mouse lymphoma L5178y-R (hereinafter also referred to as “LY-R”) cells were grown in suspension culture as described in Ramakrishnan N., Oleinick, N. L. Clay, M. E., Homg, M. F., Antunez, A. R., and Evans H. H., Photochem. Photobiol. 50, 373-378, 1989 and Agarwal, M. L., Clay, M. E., Harvey, E. J., Evans, H. H., Antunez, A. R., and Oleinick, N. L., Cancer Res., 51, 5993-5996, 1991.
The cells were used while in exponential growth. Stock solutions of either 0.5 or 1 mM of PcIV, PcXII, PcX, PcXVIII were prepared in dimethylformamide unless otherwise indicated and added to the 10 mL medium at a rate of 1 μL per mL. After allowing 18 hours for uptake of the phthalocyanine into the cells, the flasks containing the cultures were placed on a glass exposure tray above a 500-W tungsten-halogen lamp. The exposure tray was fitted with a 600-nm high-pass filter. Flasks were exposed to various fluences of red light (up to 30 kJ/m^2) at a fluence rate of approximately 74 W/m^2). After irradiation, the cells were collected by centrifugation.
For measurement of clonogenic cell survival, aliquots were plated in medium containing soft agar as described in Ramakrishnan N., Oleinick, N. L. Clay, M. E., Homg, M. F., Antunez, A. R., and Evans H. H., Photochem. Photobiol. 50, 373-378, 1989. The aliquots were plated in sufficient numbers to produce 50-200 colonies. The dishes were kept in an incubator at 37° C. in an atmosphere of 5% CO2 and 95% air for 10-14 days to allow viable cells to form colonies. Colonies were counted by eye. Controls treated with the phthalocyanine alone had plating efficiencies of about […]. The plating efficiencies of the treated cells are normalized to the plating efficiencies of control cells in each experiment. For measurement of the induction of apoptosis, DNA was isolated from the treated and control cells 2 hours after photodynamic therapy, subjected to electrophoresis on 1.5% agarose, stained with ethidium bromide, and visualized by UV transillumination, as described in Agarwal et al. The results are shown in Tables 4, 5 and 6 and in FIG. 3.

L5178Y cells = assay: Induction of apoptosis (DNA ladder) in L5178Y cells after PDT; format: cell-based, Mouse; conditions: for C × F Ld90, Minimum Demonstrated Condition to Induce Apoptosis: product of concentration and fluence
[3] = 0.5 μM, VII# preplated data only, XXI* not totally soluble at 0.5 mM

Row | SMILES | Ld50 (fluence that reduces cell survival to 50%) [2] [kJ/m^2] | Ld90 (fluence that reduces cell survival to 10%) [2] [kJ/m^2] | activity relative to PcXII [2] | normalized plating efficiency, AVG. ([2]; light dose 0 kJ/m^2) | normalized plating efficiency, AVG. ([2]; light dose 2 kJ/m^2) | normalized plating efficiency, AVG. ([2]; light dose 3 kJ/m^2) | normalized plating efficiency, AVG. ([2]; light dose 4 kJ/m^2) | normalized plating efficiency, AVG. ([2]; light dose 5 kJ/m^2) | LD 90 (light dosage that kills 90% of cells) [1, 3] [kj/m^2] | normalized plating efficiency, AVG. ([2]; light dose 1 kJ/m^2) | normalized plating efficiency, AVG. ([2]; light dose 2.5 kJ/m^2) | Fluence, Minimum Demonstrated Condition to Induce Apoptosis (L5178Y cells; 0.4 μM) [kJ/m^2] | C × F Ld90, Minimum Demonstrated Condition to Induce Apoptosis (L5178Y cells; 0.4 μM) [kJ/m^2] | further results
1 | CCN(CCC[Si](C)(C)O[Si]1(O[Si](C)(C)CCCN(CC)CCN(C)C)n2c3c4ccccc4c2N=C2N=C(N=c4c5ccccc5c(n41)=NC1=NC(=N3)c3ccccc31)c1ccccc12)CCN(C)C [Compound XVIII, SiPc[OSi(CH3)2(CH2)3N(CH2CH3)(CH2)2N(CH3)2]2] | 5.00 | 7.81 | 22% | 100 | 81.8 | 73.6 | 64.0 | 52.1 |  |  |  |  |  | LD 90 (light dosage that kills 90% of cells) ([1]; 1 μM): 7 kj/m^2; normalized plating efficiency, AVG. ([2]; light dose 6 kJ/m^2): 33.8; normalized plating efficiency, AVG. ([2]; light dose 8 kJ/m^2): 9.13; normalized plating efficiency, AVG. ([2]; light dose 10 kJ/m^2): 3.0; Fluence, Minimum Demonstrated Condition to Induce Apoptosis (L5178Y cells; 0.5 μM): 10.0 kJ/m^2; C × F Ld90, Minimum Demonstrated Condition to Induce Apoptosis (L5178Y cells; 0.5 μM): 5.0 kJ/m^2; Fluence, Minimum Demonstrated Condition to Induce Apoptosis (L5178Y cells; 1.0 μM): 3.0 kJ/m^2; C × F Ld90, Minimum Demonstrated Condition to Induce Apoptosis (L5178Y cells; 1.0 μM): 3.0 kJ/m^2
2 | CN(C)CCC[Si](C)(C)O[Si]1(O)n2c3c4ccccc4c2N=C2N=C(N=c4c5ccccc5c(n41)=NC1=NC(=N3)c3ccccc31)c1ccccc12 (centres unmarked) [Compound IV, HOSiPcOSi(CH3)2(CH2)3N(CH3)2] | 1.38 | 2.15 | about 80% | 100 | 19.7 | 0.16 |  | 0.014 | 4 | 80.9 | 0.82 | 3.0 | 1.2 | CF10(AIPcCI)/CF10 (Pc) ([1]; 0.5 μM): 3.9; F10(AIPcCI)/F10 (Pc) ([1]; 0.5 μM): 1.85; CF10(AIPcCI)/CF10 (Pc) ([1]; 1.0 μM): 3.5; F10(AIPcCI)/F10 (Pc) ([1]; 1.0 μM): 4.25
3 | CN(C)CCC[Si](C)(C)O[Si]1(O[Si](C)(C)CCCN(C)C)n2c3c4ccccc4c2N=C2N=C(N=c4c5ccccc5c(n41)=NC1=NC(=N3)c3ccccc31)c1ccccc12 [Compound XII, SiPc[OSi(CH3)2(CH2)3N(CH3)2]2] | 1.11 | 1.70 |  | 100 | 5.23 | 0.15 | 0.014 | 0.0027 | 3.3 | 82.2 | 0.90 | 3.0 | 1.2 | 
